Laboratory results from ChEMBL document CHEMBL1201862, “PubChem BioAssay data set” (2004).
The source made the active and inactive calls. Rule as the data show it, for most assays here: actives have a measured EC50 and inactives only a lower limit.

Key:
[1] = target: Genome polyprotein (dengue virus type 2, UniProt P29990); assay: Dengue-2 NS5 methyltransferase inhibitors, primary screen, biochemical, confirmation dose response (AID 588689); format: functional
[2] = target: T1, Replicative DNA helicase DnaB (Mycobacterium tuberculosis, UniProt P9WMR3); assay: DnaB intein splicing inhibitors, dose response, biochemical, cell-free fluorescence (AID 449749); format: functional
T1 sequence (P9WMR3 whole entry): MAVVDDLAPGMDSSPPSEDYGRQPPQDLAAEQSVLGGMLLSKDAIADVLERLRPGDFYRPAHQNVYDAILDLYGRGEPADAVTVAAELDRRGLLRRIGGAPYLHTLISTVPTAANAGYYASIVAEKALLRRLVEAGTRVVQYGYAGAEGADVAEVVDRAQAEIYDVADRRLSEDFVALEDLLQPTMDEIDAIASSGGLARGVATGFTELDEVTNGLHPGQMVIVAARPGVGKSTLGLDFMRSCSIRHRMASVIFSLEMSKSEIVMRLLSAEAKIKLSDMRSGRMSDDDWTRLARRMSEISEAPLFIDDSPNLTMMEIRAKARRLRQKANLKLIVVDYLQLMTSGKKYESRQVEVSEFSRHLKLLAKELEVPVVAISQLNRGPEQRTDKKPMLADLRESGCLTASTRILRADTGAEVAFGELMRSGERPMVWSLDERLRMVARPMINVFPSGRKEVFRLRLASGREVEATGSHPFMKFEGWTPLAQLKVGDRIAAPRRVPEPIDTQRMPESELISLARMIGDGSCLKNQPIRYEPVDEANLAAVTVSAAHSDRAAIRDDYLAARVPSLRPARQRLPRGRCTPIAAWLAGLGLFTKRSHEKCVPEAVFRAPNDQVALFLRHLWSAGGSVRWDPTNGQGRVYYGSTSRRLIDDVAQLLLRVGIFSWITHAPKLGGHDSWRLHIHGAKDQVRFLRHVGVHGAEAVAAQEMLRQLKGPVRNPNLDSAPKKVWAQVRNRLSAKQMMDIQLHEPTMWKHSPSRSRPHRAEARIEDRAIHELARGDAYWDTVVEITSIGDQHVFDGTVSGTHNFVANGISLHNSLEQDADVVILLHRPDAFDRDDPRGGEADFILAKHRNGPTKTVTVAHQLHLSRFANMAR

[3] = target: T2, Protein RecA (Mycobacterium tuberculosis, UniProt P9WHJ3); assay: Fluorescence Cell-Free Homogeneous Dose Retest to Identify Inhibitors of RecA-Intein Splicing Activity. [Related pubchem assays (depositor defined):AID2097, AID2223, AID489010, AID492950]; format: functional
T2 sequence (P9WHJ3 whole entry): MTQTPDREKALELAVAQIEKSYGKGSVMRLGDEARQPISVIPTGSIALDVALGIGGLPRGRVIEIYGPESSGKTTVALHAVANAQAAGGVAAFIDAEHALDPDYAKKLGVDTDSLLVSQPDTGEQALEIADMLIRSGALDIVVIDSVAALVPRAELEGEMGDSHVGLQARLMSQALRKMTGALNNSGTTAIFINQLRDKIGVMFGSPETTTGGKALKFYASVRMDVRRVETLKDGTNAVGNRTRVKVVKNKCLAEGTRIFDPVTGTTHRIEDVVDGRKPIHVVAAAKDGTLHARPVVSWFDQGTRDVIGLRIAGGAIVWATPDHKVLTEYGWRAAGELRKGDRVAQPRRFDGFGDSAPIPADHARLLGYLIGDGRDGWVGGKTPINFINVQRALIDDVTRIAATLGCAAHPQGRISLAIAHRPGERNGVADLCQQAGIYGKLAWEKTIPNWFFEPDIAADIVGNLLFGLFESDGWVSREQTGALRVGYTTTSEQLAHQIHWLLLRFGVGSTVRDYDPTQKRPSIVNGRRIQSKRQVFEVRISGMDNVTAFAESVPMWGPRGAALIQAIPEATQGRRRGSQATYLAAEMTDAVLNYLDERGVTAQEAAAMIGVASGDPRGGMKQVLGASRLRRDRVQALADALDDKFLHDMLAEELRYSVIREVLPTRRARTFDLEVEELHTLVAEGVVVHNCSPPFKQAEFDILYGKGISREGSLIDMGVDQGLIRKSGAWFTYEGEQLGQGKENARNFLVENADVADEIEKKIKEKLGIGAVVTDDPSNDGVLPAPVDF

[4] = Luminescence Cell-Based Dose Response HTS to Identify Inhibitors of 5'UTR Stem-Loop Driven Prion Protein mRNA Translation in H4 Neuroglioblastoma Cells. [Related pubchem assays: 1827 (Project Summary), 1813 (Primary HTS)]; format: functional
[5] = inhibitors of SNCA 5'UTR-driven reporter translation, confirmation, H4 neuroglioma cells, luminescence (AID 1988); format: functional, cell-based
[6] = inhibitors of firefly luciferase expression or activity, dose response, H4 neuroglioma cells, luminescence (AID 1990); format: functional, cell-based
[7] = inhibitors of intracellular T. cruzi replication, confirmation, NIH3T3 host cells, beta-gal luminescence (AID 2044); format: functional, cell-based;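 also: intracellular parasites grown in NIH/3T3 mouse fibroblasts as host cells; luminescent beta-galactosidase reporter signal from transgenic T. cruzi replicating inside host cells; inhibitors lower the luminescence signal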
[8] = cytotoxicity toward NIH3T3 fibroblasts, dose response, counter-screen, cell-based, ATP luminescence, mouse fibroblasts (AID 2010); format: functional;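 also: cells exposed to compound for about 90 hours before reading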
[9] = target: T3, High affinity choline transporter 1 (Homo sapiens, UniProt Q9GZV3); assay: CHT inhibitors, dose response, cell-based, 5-point CRC, membrane potential dye (AID 504840); format: functional
T3 sequence (Q9GZV3 whole entry): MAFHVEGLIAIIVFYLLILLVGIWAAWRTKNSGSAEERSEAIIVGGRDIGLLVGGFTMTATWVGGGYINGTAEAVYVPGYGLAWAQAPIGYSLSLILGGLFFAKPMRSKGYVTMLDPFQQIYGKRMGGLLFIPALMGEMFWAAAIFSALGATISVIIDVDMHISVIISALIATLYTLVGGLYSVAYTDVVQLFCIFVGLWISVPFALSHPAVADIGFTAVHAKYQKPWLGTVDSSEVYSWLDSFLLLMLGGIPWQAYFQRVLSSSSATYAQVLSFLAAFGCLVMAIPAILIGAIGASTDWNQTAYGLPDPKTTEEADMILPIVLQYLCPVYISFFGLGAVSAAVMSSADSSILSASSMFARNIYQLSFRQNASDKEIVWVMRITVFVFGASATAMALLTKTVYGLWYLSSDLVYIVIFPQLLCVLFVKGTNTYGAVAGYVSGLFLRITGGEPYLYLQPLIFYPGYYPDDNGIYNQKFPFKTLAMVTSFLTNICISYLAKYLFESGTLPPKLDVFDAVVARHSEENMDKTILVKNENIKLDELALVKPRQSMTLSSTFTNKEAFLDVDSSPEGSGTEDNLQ

[10] = cells; format: functional
[11] = Shn3 3'UTR reporter inhibitors, dose response, cell-based, Clone20 osteoblasts, firefly luciferase, cherry-picked (AID 624132); format: functional;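 also: firefly luciferase luminescence from reporter carrying the Shn3 3'UTR in osteoblasts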
[12] = HepG2 cell cytotoxicity, dose response, cytotoxicity control for Shn3 inhibitor project, CellTiter-Glo, cherry-picked (AID 624134); format: functional, cell-based
[13] = control 3'UTR Renilla luciferase suppression, dose response, counter-screen for Shn3 inhibitor project, cell-based, Clone20-Shn3RL, cherry-picked (AID 624133); format: functional
[14] = tested on: Streptococcus sp. 'group A'; assay: growth inhibition of control SK(-) GAS strain, dose response, counter-screen for streptokinase expression inhibitor project, luminescence, kanamycin, BacTiterGlo, confirmation (AID 1900); format: functional, organism-based
[15] = tested on: Streptococcus; assay: Group A Streptococcus viability loss, dose response, counter-screen for streptokinase expression inhibitor project, luminescence, BacTiterGlo (AID 1915); format: functional, organism-based;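 also: potency for reduction of bacterial viability or growth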
[16] = target: T4, Polyadenylate-binding protein 1 (Homo sapiens, UniProt P11940); assay: PABP1 MLLE–PAM2 interaction inhibitors, dose response, miRNA deadenylation inhibitor project, biochemical, fluorescence polarization, Cy5-PAM2 peptide, secondary (AID 602260); format: functional; conditions: read-out: IC50_Mean
T4 sequence (P11940 whole entry): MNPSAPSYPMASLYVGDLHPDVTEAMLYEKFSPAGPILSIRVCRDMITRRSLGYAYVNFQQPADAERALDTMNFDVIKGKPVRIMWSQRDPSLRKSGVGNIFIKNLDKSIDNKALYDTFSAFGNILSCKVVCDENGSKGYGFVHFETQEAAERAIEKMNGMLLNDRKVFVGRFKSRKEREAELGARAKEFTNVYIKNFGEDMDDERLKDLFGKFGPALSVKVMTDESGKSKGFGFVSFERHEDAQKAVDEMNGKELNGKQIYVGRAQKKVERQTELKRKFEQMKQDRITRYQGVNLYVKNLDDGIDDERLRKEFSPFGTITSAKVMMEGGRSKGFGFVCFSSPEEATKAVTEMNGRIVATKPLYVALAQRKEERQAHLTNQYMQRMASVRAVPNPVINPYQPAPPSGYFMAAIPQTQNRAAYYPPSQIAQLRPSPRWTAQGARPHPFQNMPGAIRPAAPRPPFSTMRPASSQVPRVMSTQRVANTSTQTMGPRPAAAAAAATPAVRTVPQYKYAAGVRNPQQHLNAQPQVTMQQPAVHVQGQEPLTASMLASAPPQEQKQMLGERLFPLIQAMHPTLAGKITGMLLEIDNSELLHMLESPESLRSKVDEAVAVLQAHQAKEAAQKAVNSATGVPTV

[17] = target: T4, Polyadenylate-binding protein 1; assay: PABP1 MLLE–PAM2 binding inhibitor potency, dose response, biochemical, fluorescence polarization, FITC-PAM2 peptide (AID 602259); format: functional; conditions: read-out: IC50_Mean
[18] = Luminescence Cell-Based Dose Confirmation HTS to Identify Inhibitors of Platelet Dense Granule Release. [Related pubchem assays: 1663 (Primary HTS), 1678 (Summary of Project)]; format: functional
[19] = target: Luciferin 4-monooxygenase (Photinus pyralis, UniProt P08659); assay: firefly luciferase enzyme inhibitors, dose response, biochemical, luminescence (AID 1891)
Sequence of Luciferin 4-monooxygenase (P08659 whole entry): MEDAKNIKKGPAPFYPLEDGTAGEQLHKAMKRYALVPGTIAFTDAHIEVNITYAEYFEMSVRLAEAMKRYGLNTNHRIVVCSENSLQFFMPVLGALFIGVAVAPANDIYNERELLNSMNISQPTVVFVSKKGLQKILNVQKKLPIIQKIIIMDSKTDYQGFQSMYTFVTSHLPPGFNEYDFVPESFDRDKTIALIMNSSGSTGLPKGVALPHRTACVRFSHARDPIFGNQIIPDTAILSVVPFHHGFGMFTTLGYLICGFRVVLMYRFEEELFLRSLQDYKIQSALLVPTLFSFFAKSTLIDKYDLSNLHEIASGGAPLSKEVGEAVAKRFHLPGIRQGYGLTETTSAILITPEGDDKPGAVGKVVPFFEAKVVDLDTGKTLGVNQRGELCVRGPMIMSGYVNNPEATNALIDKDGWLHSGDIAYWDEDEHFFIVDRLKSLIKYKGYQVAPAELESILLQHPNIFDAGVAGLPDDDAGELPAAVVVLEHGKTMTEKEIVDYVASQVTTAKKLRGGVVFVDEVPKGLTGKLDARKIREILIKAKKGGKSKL

Sequence of Genome polyprotein (P29990 2492-3391 limits assumed): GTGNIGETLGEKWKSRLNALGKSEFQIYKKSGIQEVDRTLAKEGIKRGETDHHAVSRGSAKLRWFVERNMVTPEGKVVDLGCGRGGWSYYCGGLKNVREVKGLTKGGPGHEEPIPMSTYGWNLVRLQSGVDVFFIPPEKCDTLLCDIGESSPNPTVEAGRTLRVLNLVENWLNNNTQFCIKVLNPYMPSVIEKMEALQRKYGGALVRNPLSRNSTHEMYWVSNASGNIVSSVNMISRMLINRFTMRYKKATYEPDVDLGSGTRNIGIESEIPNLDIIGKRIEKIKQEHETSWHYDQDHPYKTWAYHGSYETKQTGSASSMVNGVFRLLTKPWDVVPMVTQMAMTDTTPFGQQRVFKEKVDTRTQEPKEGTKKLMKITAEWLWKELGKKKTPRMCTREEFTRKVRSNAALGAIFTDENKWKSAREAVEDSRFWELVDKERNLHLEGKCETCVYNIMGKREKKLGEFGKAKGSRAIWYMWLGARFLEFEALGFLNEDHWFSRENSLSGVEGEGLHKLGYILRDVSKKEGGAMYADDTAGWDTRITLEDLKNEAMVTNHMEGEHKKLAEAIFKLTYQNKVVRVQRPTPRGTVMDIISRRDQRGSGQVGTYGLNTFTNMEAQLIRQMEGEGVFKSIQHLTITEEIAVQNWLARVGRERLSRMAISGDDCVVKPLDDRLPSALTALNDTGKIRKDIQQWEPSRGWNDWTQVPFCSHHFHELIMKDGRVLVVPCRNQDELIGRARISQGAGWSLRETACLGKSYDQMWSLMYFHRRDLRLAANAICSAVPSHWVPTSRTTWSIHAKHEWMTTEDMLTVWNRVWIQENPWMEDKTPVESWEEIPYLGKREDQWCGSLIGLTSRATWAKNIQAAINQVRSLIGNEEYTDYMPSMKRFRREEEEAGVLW

In the case of `C#CCOc1c(Cl)cc(/C=C2/C(=O)ON=C2C)cc1OCC`, the IC50 [1] is reported as > 100 µM (active).

For `O=C1NC(=O)C(=Cc2cc3c(cc2[N+](=O)[O-])OCO3)C(=O)N1`, the AC50 [2] was > 380 µM (inactive), the IC50 [1] was 21.4 µM (active) and the EC50 [3] was > 380 µM (inconclusive).

For `CC#CC(=O)N1CCC(CCc2ccccc2)(C(=O)OCC)CC1`, the EC50 [4] was > 120 µM (not active).

With `CC(C)c1nnc(NC(=O)CC(=O)Nc2ccccc2C(=O)O)s1` the EC50 [5] was 11.3 µM (active), the EC50 [6] was 16.3 µM (active) and the EC50 [4] was 14.6 µM (active).

With `O=C(Nc1ccc(S(=O)(=O)N2CCOCC2)cc1)c1ccc([N+](=O)[O-])cc1Cl` the EC50 [7] was 0.867 µM (active), the EC50 [8] was > 30 µM (not active) and the IC50 [9] was 15.1 µM (active).

For `c1ccc(Sc2ccccc2CN2CCCC2)cc1`, the EC50 [5] was > 120 µM (not active), the EC50 [6] was > 120 µM (not active) and the EC50 [4] was > 120 µM (not active).

With `O=C(COc1ccccc1)Nc1nnc(-c2ccc(Cl)cc2)o1` the IC50 [10] was 34.6 µM (active).

In the case of `Nc1nonc1C(=O)NCCNCc1cc(Br)ccc1OCc1ccc(F)cc1`, the AC50 [11] is reported as 3.74 µM (active), the AC50 [12] is reported as 38.6 µM (active) and the AC50 [13] is reported as 8.32 µM (active).

With `Clc1ccc(C[n+]2cc(-c3ccccc3)n3c2CCCCC3)c(Cl)c1` the AC50 [11] was 1.2 µM (active), the EC50 [7] was 0.273 µM (active) and the EC50 [8] was 15.3 µM (active). The AC50 [12] was > 70 µM (inactive) and the AC50 [13] was 1.21 µM (active).

In the case of `O=C1OC(c2ccccc2)C(C(=O)c2ccc(Cl)cc2)=C1O` (configuration not stated), the IC50 [1] is reported as 83.4 µM (active).

For `COc1ccc(NC(=O)c2cc(Cl)ccc2Cl)c([N+](=O)[O-])c1`, the EC50 [5] was > 120 µM (not active), the EC50 [6] was > 120 µM (not active) and the EC50 [4] was > 120 µM (not active).

For `Cc1ccc(-c2cc(-c3ccc(F)cc3)nc(N)c2C#N)o1`, the EC50 [5] was 49.7 µM (active), the EC50 [6] was 17.1 µM (active) and the EC50 [4] was > 120 µM (not active).

In the case of `CC1=NN(C(N)=S)C(=O)C1N=Nc1c(Br)cc(Br)cc1Br` (configuration not stated), the IC50 [1] is reported as 43.5 µM (active), the EC50 [14] is reported as 2.76 µM (active) and the EC50 [15] is reported as 8.6 µM (active). For the same molecule, the IC50 [9] was 12 µM (active).

With `COC(=O)C1=C(C(=O)OC)C(c2ccccc2O)c2sc(O)nc2S1` (configuration not stated) the IC50 [1] was 93.2 µM (active), the IC50 [16] was > 66 µM (inactive) and the IC50 [17] was > 66 µM (inactive).

In the case of `CCOC(=O)c1ccc(NC(=O)CSc2nnc(-c3cccs3)n2CC)cc1`, the EC50 [5] is reported as > 120 µM (not active), the EC50 [6] is reported as > 120 µM (not active) and the EC50 [4] is reported as > 120 µM (not active).

In the case of `Cc1ccc(OC(=O)CCS(=O)(=O)c2ccc(C)cc2)cc1`, the IC50 [10] is reported as < 0.1 µM (active).

With `O=C(NCCC1=CCCCC1)C1CCC(CNc2nc(S)nc3ccccc23)CC1` (configuration not stated) the EC50 [5] was > 120 µM (not active), the EC50 [6] was 9.48 µM (active) and the EC50 [4] was > 120 µM (not active).

In the case of `CC1CCC(NC(=O)c2ccc(NC(=O)CC3SC(N4CCCC4)=NC3=O)cc2)CC1` (configuration not stated), the IC50 [9] is reported as 14.5 µM (active).

In the case of `CCCCCn1c(=O)c(C(=O)OCC)c(Cl)c2ccccc21`, the IC50 [9] is reported as 19.1 µM (active).

In the case of `COC(=O)c1sccc1NC(=O)C1CC2CCC1C2` (configuration not stated), the EC50 [5] is reported as > 120 µM (not active), the EC50 [6] is reported as > 120 µM (not active) and the EC50 [4] is reported as > 120 µM (not active).

For `CCC(=O)c1ccc(OCc2ccc(C(=O)OC)cc2)cc1`, the IC50 [10] was 38.8 µM (active).

With `Cc1c(C(=O)Nc2ccc(S(=O)(=O)NCC3CCCO3)cc2)cccc1[N+](=O)[O-]` (configuration not stated) the IC50 [9] was 14.5 µM (active).

For `CC1=NN(C(=O)c2ccccc2F)C(O)(c2ccc(Cl)cc2)C1` (configuration not stated), the IC50 [10] was > 50 µM (active).

For `Cc1ccccc1-n1nc2c(c1NC(=O)C1CCCC1)CS(=O)(=O)C2`, the EC50 [5] was > 120 µM (not active), the EC50 [6] was > 120 µM (not active) and the EC50 [4] was > 120 µM (not active).

For `Cc1cc(C)n2nc(N)c(N=Nc3ccccc3)c2n1`, the EC50 [18] was > 112 µM (not active), the IC50 [10] was 5.78 µM (active) and the EC50 [19] was > 112 µM (not active).

With `CC(C)n1c(/C=C/[C@H](O)C[C@H](O)CC(=O)O)c(-c2ccc(F)cc2)c2ccccc21` the AC50 [11] was 1.42 µM (active), the AC50 [12] was > 70 µM (inactive) and the AC50 [13] was 5.95 µM (active).

With `O=C(C/C=N\OCc1ccc([N+](=O)[O-])cc1)Nc1ccc(F)cc1F` the IC50 [10] was 33 µM (active).
